# In PubChem BioAssay (NCI):
# Values joined by “and” are separate entries in the source; they are usually repeats but may differ in a detail not shown here. Equal values may be shown once.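 Where inhibition never reached the appropriate level, the endpoint shown equals the highest concentration tested. Otherwise, values were interpolated linearly from a five-concentration, 48-hour dose response in 96-well plates. At the GI50, growth is halved. TGI: concentration producing complete growth inhibition.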
# Columns and labels:
# Assay in all cases: NCI anticancer screen, dose series, 48 h
# COLO 205 colon = system: COLO 205 colon
# ACHN renal = system: ACHN renal
# HS 578T breast = system: HS 578T breast
# OVCAR-8 ovarian = system: OVCAR-8 ovarian
# KM12 colon = system: KM12 colon
# HCT-116 colon = system: HCT-116 colon
# SNB-75 CNS = system: SNB-75 CNS
# NCI-H226 lung = system: NCI-H226 lung
# SW-620 colon = system: SW-620 colon
# UO-31 renal = system: UO-31 renal
# PC-3 prostate = system: PC-3 prostate
# SF-268 CNS = system: SF-268 CNS
# T-47D breast = system: T-47D breast
# MCF7 breast = system: MCF7 breast
# UACC-257 melanoma = system: UACC-257 melanoma
# MALME-3M melanoma = system: MALME-3M melanoma
# MDA-MB-231 breast = system: MDA-MB-231 breast
# HCT-15 colon = system: HCT-15 colon
# SF-295 CNS = system: SF-295 CNS
# SN12C renal = system: SN12C renal
# SK-MEL-5 melanoma = system: SK-MEL-5 melanoma
# NCI-H23 lung = system: NCI-H23 lung
# SF-539 CNS = system: SF-539 CNS
# SNB-19 CNS = system: SNB-19 CNS
# OVCAR-3 ovarian = system: OVCAR-3 ovarian
# RPMI-8226 leukemia = system: RPMI-8226 leukemia
# TK-10 renal = system: TK-10 renal
# A498 renal = system: A498 renal
# SK-MEL-2 melanoma = system: SK-MEL-2 melanoma
# CCRF-CEM leukemia = system: CCRF-CEM leukemia
# HCC-2998 colon = system: HCC-2998 colon
# OVCAR-5 ovarian = system: OVCAR-5 ovarian
# IGROV1 ovarian = system: IGROV1 ovarian
# SK-OV-3 ovarian = system: SK-OV-3 ovarian
# 786-0 renal = system: 786-0 renal
# HT29 colon = system: HT29 colon
# MDA-MB-435 = system: MDA-MB-435
# NCI/ADR-RES ovarian = system: NCI/ADR-RES ovarian
# DU-145 prostate = system: DU-145 prostate
# SR leukemia = system: SR leukemia
# NCI-H460 lung = system: NCI-H460 lung
# RXF 393 renal = system: RXF 393 renal
# HOP-92 NSCLC = system: HOP-92 NSCLC
# BT-549 breast = system: BT-549 breast
# NCI-H522 lung = system: NCI-H522 lung
# CAKI-1 renal = system: CAKI-1 renal
# EKVX NSCLC = system: EKVX NSCLC
# HOP-62 NSCLC = system: HOP-62 NSCLC
# OVCAR-4 ovarian = system: OVCAR-4 ovarian
# K-562 leukemia = system: K-562 leukemia
# SK-MEL-28 melanoma = system: SK-MEL-28 melanoma
# M14 melanoma = system: M14 melanoma
# U251 CNS = system: U251 CNS
compound,measurement,setting,value
C=C/C=C/[C@@H](O)CC(=C)C[C@H]1OC2[C@H](C)[C@@H](OC(=O)C[C@H]3C[C@H](OC(C)=O)C[C@@]4(C[C@@](C)(O)C[C@H](CC(=C)[C@@H](C)[C@H](OC(C)=O)[C@H](C)C(=O)C[C@@H]5C[C@H](OC)CC6(C[C@@H](O)C[C@H](/C=C\CCC[C@H]7O[C@](O)(C=C[C@H]7C)[C@H]2O)O6)O5)O4)O3)[C@@H]1O,GI50,COLO 205 colon,0.359 nM and < 2.5 nM
same,TGI,COLO 205 colon,< 2.5 nM
same,GI50,ACHN renal,4.72 nM and 8.56 nM
same,TGI,ACHN renal,> 25000 nM
same,GI50,HS 578T breast,1.77 nM
same,TGI,HS 578T breast,8.2 nM
same,GI50,OVCAR-8 ovarian,0.53 nM and 2.5 nM
same,GI50,KM12 colon,0.327 nM and 2.5 nM
same,TGI,HCT-116 colon,11.2 nM
same,GI50,SNB-75 CNS,> 25000 nM
same,TGI,SNB-75 CNS,> 25000 nM
same,GI50,NCI-H226 lung,0.503 nM and 2.5 nM
same,GI50,SW-620 colon,1.23 nM and 2.5 nM
same,TGI,SW-620 colon,> 25000 nM
same,TGI,UO-31 renal,> 10900 nM
same,GI50,PC-3 prostate,2.5 nM
same,TGI,PC-3 prostate,> 25000 nM
same,GI50,SF-268 CNS,4.06 nM and 2.5 nM
same,TGI,SF-268 CNS,41.3 nM and 277 nM
same,TGI,T-47D breast,> 25000 nM
same,GI50,MCF7 breast,< 2.5 nM
same,TGI,MCF7 breast,< 2.5 nM
same,GI50,UACC-257 melanoma,2.48 nM
same,TGI,UACC-257 melanoma,> 25000 nM
same,GI50,MALME-3M melanoma,2.5 nM
same,GI50,MDA-MB-231 breast,0.409 nM and 2.5 nM
same,TGI,MDA-MB-231 breast,3.62 nM
same,GI50,HCT-15 colon,6.19 nM and 2.5 nM
same,TGI,HCT-15 colon,> 9460 nM
same,GI50,SF-295 CNS,0.492 nM and < 2.5 nM
same,TGI,SF-295 CNS,2.9 nM and < 2.5 nM
same,GI50,SN12C renal,0.339 nM and 2.5 nM
same,GI50,SK-MEL-5 melanoma,0.327 nM and 2.5 nM
same,TGI,SK-MEL-5 melanoma,5.71 nM and 3.27 nM
same,GI50,NCI-H23 lung,0.475 nM and < 2.5 nM
same,TGI,NCI-H23 lung,< 2.5 nM
same,GI50,SF-539 CNS,< 2.5 nM
same,TGI,SF-539 CNS,< 2.5 nM
same,GI50,SNB-19 CNS,0.625 nM and 2.5 nM
same,TGI,SNB-19 CNS,> 25000 nM
same,GI50,OVCAR-3 ovarian,< 2.5 nM
same,TGI,OVCAR-3 ovarian,< 2.5 nM
same,GI50,RPMI-8226 leukemia,2.5 nM
same,TGI,RPMI-8226 leukemia,82.1 nM
same,GI50,TK-10 renal,1.62 nM and 2.5 nM
same,GI50,A498 renal,0.388 nM and 2.5 nM
same,TGI,A498 renal,5.44 nM
same,GI50,SK-MEL-2 melanoma,2.5 nM
same,TGI,SK-MEL-2 melanoma,3.08 nM
same,GI50,CCRF-CEM leukemia,2.5 nM
same,TGI,CCRF-CEM leukemia,> 25000 nM
same,GI50,HCC-2998 colon,0.591 nM and < 2.5 nM
same,TGI,HCC-2998 colon,2.72 nM and < 2.5 nM
same,GI50,OVCAR-5 ovarian,2.93 nM and 2.5 nM
same,TGI,OVCAR-5 ovarian,> 25000 nM
same,GI50,IGROV1 ovarian,1.58 nM and < 2.5 nM
same,TGI,IGROV1 ovarian,< 2.5 nM
same,GI50,SK-OV-3 ovarian,0.465 nM and 2.5 nM
same,GI50,786-0 renal,0.572 nM and 2.5 nM
same,TGI,786-0 renal,> 25000 nM
same,GI50,HT29 colon,2.5 nM
same,GI50,MDA-MB-435,< 2.5 nM
same,TGI,MDA-MB-435,< 2.5 nM
same,TGI,NCI/ADR-RES ovarian,164 nM
same,GI50,DU-145 prostate,1.2 nM and 2.5 nM
same,GI50,SR leukemia,2.5 nM
same,TGI,SR leukemia,> 25000 nM
same,GI50,NCI-H460 lung,0.798 nM and 2.5 nM
same,TGI,NCI-H460 lung,5.29 nM
same,GI50,RXF 393 renal,2.5 nM
same,TGI,RXF 393 renal,54.2 nM
same,GI50,HOP-92 NSCLC,22.7 nM and 2.5 nM
same,TGI,HOP-92 NSCLC,15100 nM
same,GI50,BT-549 breast,2.5 nM
same,TGI,BT-549 breast,> 25000 nM
same,GI50,NCI-H522 lung,0.825 nM and < 2.5 nM
same,TGI,NCI-H522 lung,< 2.5 nM
same,GI50,CAKI-1 renal,5.38 nM and 2.5 nM
same,TGI,EKVX NSCLC,> 25000 nM
same,GI50,HOP-62 NSCLC,0.252 nM and 2.5 nM
same,TGI,HOP-62 NSCLC,> 25000 nM
same,GI50,OVCAR-4 ovarian,0.835 nM and 2.5 nM
same,TGI,OVCAR-4 ovarian,> 25000 nM
same,TGI,K-562 leukemia,> 25000 nM
same,TGI,SK-MEL-28 melanoma,> 25000 nM
same,TGI,M14 melanoma,7.09 nM
same,TGI,U251 CNS,> 25000 nM
